Article PMC10816640, “Discovery of Novel Diphenyl Acrylonitrile Derivatives That Promote Adult Rats’ Hippocampal Neurogenesis” (International Journal of Molecular Sciences, 2024)
“Also recorded” adds a separate entry of the source.

Key:
[1] = system: progenitor cells in the rodents’ hippocampi; assay: Proliferation stage of neurogenesis: BrdU labeling, rats sacrificed 24 h after BrdU; format: in vivo, rat; details: i.p. 4.0 mg/kg/day for 28 days, BrdU pulse, vs vehicle; for proliferation-promoting activity (number of BrdU+ positive cells): nine-week-old rats (n = 4), Figure 8, 4 mg/kg/day
Text: (§1) Previous in vitro or in vivo studies mainly focused on stimulating the proliferation effect of the small molecules. In this study, a two-step protocol was employed. First, the stimulating function of the compounds on progenitor cells in the rodents’ hippocampi was examined with using bromodeoxyuridine (BrdU) labeling. Next, the potent compounds were further screened to ascertain their ability to promote the differentiation of neural progenitor cells, as confirmed by dual labeling of BrdU and NeuN (neuronal nuclear antigen).
Adult rats were administered intraperitoneally with the prepared compounds at a dose of 4.0 mg/kg/day for a period of 28 days, followed by a BrdU pulse. After 24 h, the rats were sacrificed, and their brain tissues were isolated and cryosectioned. Immunohistochemical staining was performed and eight brain tissue slices were randomly selected for statistical analyzing.
Eight-week-old (or 10-week-old) SD male rats purchased from Peking University Health Science Center were acclimatized for one week at the Beijing Institute of Technology. All experimental protocols strictly adhered to the regulations governing the management of experimental animals and the animal ethics policy of the Beijing Institute of Technology.
(§2) The compounds were dissolved in reagent-grade soybean oil containing 10% ethanol to reach a drug concentration of 2.8 mg/mL. The rats in the experimental group received intraperitoneal injections of the compounds at a dose of 4.0 mg/kg/d for 28 consecutive days. As a control, the vehicle group was administered injections of reagent-grade soybean oil containing 10% ethanol. BrdU (Sigma-Aldrich, St. louis, MA, USA) solution, prepared in physiological saline at a concentration of 10 mg/mL, was administered to all rats on day 29. Each rat received two injections of BrdU at a dosage of 50 mg/kg, with a 2 h interval between injections. The rats were euthanized 24 h (or 28 days) after the final BrdU injection.
(§3) Two or four rats per group were anesthetized using pentobarbital sodium (70 mg/kg) and subsequently perfused with physiological saline. The brain tissue was carefully dissected and fixed in 4% paraformaldehyde at 4 °C for one week. Next, the brain tissue underwent dehydration using a phosphate-buffered saline (PBS) solution containing 20% to 30% sucrose. Finally, the brain tissue was cryosectioned into slices with a thickness of 30 μm, and eight slices were randomly selected for further analysis.
The assessment of new cell proliferation was conducted using BrdU staining. To eliminate endogenous peroxides, sections were exposed to 1% H2O2 for 30 min at RT. Cellular denaturation was achieved by treating the sections with 2 M HCl at 37 °C for 1 h, followed by rinsing in 0.1 M borate buffer (pH 8.5). Tissue sections were subjected to blocking in a solution consisting of 5% goat serum and 0.5% Triton X-100 in PBS at RT for 1–2 h. The specimens were then incubated overnight at 4 °C with a mouse primary antibody specific to BrdU (diluted at 1:500; Millipore, Billerica, MA, USA). Subsequently, the DAB kit was employed for 2 h of incubation at RT.
(§4) The data were presented as mean ± SEM (standard error of the mean) and visualized using GRAPHPAD PRISM 6 (Graphpad Software, La Jolla, CA, USA). Statistical analysis was conducted utilizing one-way analysis of variance (ANOVA) followed by a post hoc test. Subsequent to the statistical treatment, the observed discrepancies were determined to be statistically significant (p < 0.05).

[2] = system: newborn neural progenitor cells (differentiation into mature neurons); assay: Differentiation stage of neurogenesis: NeuN/BrdU double staining, rats sacrificed 28 days after BrdU; format: in vivo, rat; details: for neurogenesis-promoting activity (number of NeuN+ and BrdU+ cells), differentiation stage: nine-week-old rats (n = 4), i.p. 4.0 mg/kg, Figure 9, 4 mg/kg
Text: as §1
The study employed a rat model, wherein nine-week-old rats were administered intraperitoneally with the compound at a dose of 4.0 mg/kg/day for 28 days and then treated with a pulse of BrdU. Instead of sacrificing the rats 24 h after the BrdU injections, the rats were sacrificed after another 28 days. The brains were then isolated and cryosectioned. Eight randomly selected slices were subjected to immunohistochemical staining. This staining enabled the co-localization of the BrdU-incorporated cells with the NeuN marker, enabling the definition of the compounds that could promote the differentiation of newborn neural progenitor cells into mature functional neurons.
as §2, §3
The differentiation process of NPCs was visualized through the utilization of the NeuN/BrdU double staining technique. Tissue sections were subjected to an incubation period in a blocking buffer at RT for 1 to 2 h. The specimens were exposed to a rabbit anti-NeuN antibody (diluted at 1:500, Abcam, Cambridge, MA, UK) and a primary antibody, BrdU (diluted at 1:500), overnight at 4 °C. Afterwards, the sections were treated with anti-mouse 488 and anti-rabbit TRITC secondary antibodies for 2 h at RT.
as §4

[3] = system: hCMEC/D3 cells; assay: CCK-8 assay for cytotoxicity; format: cell-based; details: hCMEC/D3 cell lines, CCK-8, 48 h incubation
Procedure: hCMEC/D3 cells were obtained from the Cell Resource Center, Peking Union Medical College (PCRC). All cells were acquired in 2023 and were maintained in culture for no more than 10 continuous passages. The cells were cultured in DMEM (11995065, Gibco, Grand Island, NY, USA) supplemented with 10% FBS (164210-50, Procell, Austin, TX, USA), 100 units of penicillin, and […] of streptomycin (PB180120, Procell).
hCMEC/D3 cells (5 × 10^3) were seeded into 96-well plates in 90 μL of DMEM medium containing 10% fetal bovine serum per well. All test compounds were formulated as 10 mM stock solutions in DMSO (final concentration ≤ 0.5%). After overnight incubation, the test compound stock solution was diluted with DMEM medium containing 10% fetal bovine serum to every target concentration, and 10 μL of each was added to each well. Three parallel experiments were set up for each compound. After incubation for 48 h, 10 μL of CCK-8 reagent was added to each well in sequence according to the manufacturer’s instructions. After incubating in a 37 °C incubator for 1–2 h, the absorbance was measured at a wavelength of 450 nm, using a wavelength of 620 nm as a reference, and detected with a ThermoScientific Multiskan FC (Thermo Fisher Scientific). The graphs are representative results, and this experiment was independently repeated three times with similar results.

Structure (SMILES)	proliferation-promoting activity (number of BrdU+ positive cells) [1]	neurogenesis-promoting activity (number of NeuN+ and BrdU+ cells), differentiation stage [2]	IC50 [3] [µM]	proliferation-promoting activity (number of BrdU+ newborn cells) ([1]; eleven-week-old rats (n = 2), Figures 3-6, 4 mg/kg/day)	neurogenesis-promoting activity (number of NeuN+ and BrdU+ cells, newborn neurons) ([2]; nine-week-old rats (n = 2), i.p. 4.0 mg/kg/day for 28 days, BrdU pulse, Figure 7B, 4 mg/kg/day)
CC(C)C(=O)Nc1ccc(/C=C(\C#N)c2ccc3c(c2)OCO3)cc1 [32b, (Z)-N-(4-(2-(benzo[d][1, 3]dioxol-5-yl)-2-cyanovinyl)phenyl)isobutyramide]	significant proliferation-promoting activity; also recorded: exhibited proliferative activity	significant neurogenesis-promoting activity; also recorded: better activity than the clinical drug NSI-189; also recorded: highest activity	> 200		
CC(C)C(=O)Nc1ccc(/C(C#N)=C/c2ccc3c(c2)OCO3)cc1 [29b, (Z)-N-(4-(2-(benzo[d][1, 3]dioxol-5-yl)-1-cyanovinyl)phenyl)isobutyramide]	significant proliferation-promoting activity; also recorded: exhibited proliferative activity	significant neurogenesis-promoting activity; also recorded: better activity than the clinical drug NSI-189	> 200	significant proliferation-promoting activity; also recorded: satisfactory activity	significant neurogenesis-promoting activity; also recorded: significantly increased the number of newborn neurons
